Like-named read-outs stand apart in the source and are kept apart here.
What was measured:
ICR male mice = assay: Acute toxicity in mice (i.v.); format: in vivo; conditions: five mice per dose
Procedure: The acute toxicity of Mer-A2026A was determined in ICR male mice. Five mice were used at each dose.

[1] = tested on: norepinephrine- or KCl-contracted rat thoracic aorta; assay: Vasodilating activity: relaxation of contracted thoracic aorta helical strips; set-up: species or system Male Sprague-Dawley rats; conditions: for IC50: cumulative application, pH 7.4, 37° C.; for relaxation of the aorta compared with papaverine: vs papaverine, norepinephrine or KCl contraction
Procedure: Male Sprague-Dawley rats weighing 250-300 g were sacrificed by cervical dislocation and exsanguinated. The thoracic aorta was dissected out and helical strips, 2 mm wide and 10 mm long, were prepared. Each preparation was mounted in a 10 ml organ bath containing physiological saline solution (Krebs-Henzeleit solution, pH 7.4). The solution was gassed with 95% O2 - 5% CO2 at 37° C. and a resting tension of 0.5 g was applied. Tissues were allowed to equilibrate for at least 60 minutes before the application of test substances. The developed tension was measured isometrically with a force-displacement transducer and recorded on pen-recorder. Tissues had been contracted with 10^-7 M norepinephrine or isotonic 60 mM KCl and test substances were applied cumulatively.

blood pressure = assay: Depressor effect in anesthetized spontaneously hypertensive rats (i.v.); format: in vivo, Male spontaneously hypertensive rats (SHR rats); set-up: Vasodepression / Duration time: unit not given here; conditions: for Duration time / Vasodepression: injected into femoral vein
Procedure: Male spontaneously hypertensive rats (SHR rats), 25-31 weeks old, were anesthetized with 40 mg/kg of pentobarbital sodium injected intraperitoneally. For the measurement of blood pressure, a cannula was inserted into the left carotid artery and connected to a multipurpose polygraph through a pressure transducer. Each animal was allowed to equilibrate for at least 30 minutes before injection and test substances were injected into the femoral vein through a polyethylene tube.

[2] = 10^-7 M norepinephrine contraction, read-out: IC50 Norepinephrine (concentration needed to induce a 50% decrease in norepinephrine-induced contraction)
[3] = isotonic 60 mM KCl contraction, read-out: IC50 Isotonic KCl (concentration needed to induce a 50% decrease in KCl-induced contraction)

COc1cc(O)c(C)c(C/C=C(\C)C/C=C/C(C)=C/C(C)C(O)/C(C)=C/C(C)C)n1 (centres unmarked) [Mer-A2026A]
acute toxicity (survival) (ICR male mice; 250 μg/Kg intravenous): all survived | acute toxicity (deaths) (ICR male mice; 500 μg/Kg intravenous): sacrificed the one mouse | solubility in commonly available organic solvents (Solubility): soluble | solubility in water (Solubility): insoluble | IC50 [1, 2]: 200 nM | IC50 [1, 3]: 1000 nM | relaxation of the aorta compared with papaverine [1]: more greatly relaxed the aorta than papaverine | Duration time (blood pressure; 10 μg/kg): 0.2 | Vasodepression (blood pressure; 10 μg/kg): 3.6 | Duration time (blood pressure; 30 μg/kg): 9.4 | Vasodepression (blood pressure; 30 μg/kg): 25.0 | Duration time (blood pressure; 100 μg/kg): 24.5 | Vasodepression (blood pressure; 100 μg/kg): 47.7 | depressor effect (in words) (blood pressure; SHR rats, i.v., refers to Table 3): markedly prolonged the duration time and decreased the blood pressure

C/C=C(\C)C(O)C(C)/C=C(C)/C=C/C/C(C)=C/Cc1nc(OC)cc(O)c1C (centres unmarked) [Mer-A2026B]
solubility in commonly available organic solvents (Solubility): soluble | solubility in water (Solubility): insoluble | IC50 [1, 2]: 770 nM | IC50 [1, 3]: 400 nM | relaxation of the aorta compared with papaverine [1]: more greatly relaxed the aorta than papaverine

COc1ccc(Cc2nccc3cc(OC)c(OC)cc23)cc1OC [Papaverine, reference compound]
IC50 [1, 2]: 4700 nM | IC50 [1, 3]: 17000 nM | Duration time (blood pressure; 1000 μg/kg): 2.2 | Vasodepression (blood pressure; 1000 μg/kg): 52.0

From patent publication US5223519A, “4-hydroxypyridine derivatives, useful for treating circulatory diseases” (Mercian Corporation, priority 1990, dated 1993)
